{"source": "patent US11478001B2", "about": "“Methods of administering a pre-operative carbohydrate-rich beverage composition” (ClearFast Inc., priority 2014, dated 2022)", "origin": "cited, not measured here", "conditions": "short-term oral administration"}
{"compound": "NC(=O)NCCC[C@H](N)C(=O)O", "note": "[L-citrulline]", "values": [{"measurement": "safety and tolerability", "value": "safe and well tolerated"}]}
